Values quoted from earlier work as cited in PMC6256996, “Natural products as new antimitotic compounds for anticancer drug development” (Clinics, 2018).
Where two headings read alike, the source gives them in different places.

How the values were obtained:
[1] = tested on: peripheral blood mononuclear cells (PBMCs); parameters: method as in doi:10.2174/1570180814666171012162557; conditions: 72h of treatment; mean±SEM
HCT-8 = tested on: HCT-8; parameters: method as in doi:10.2174/1570180814666171012162557; conditions: for SI PBMC/HCT-8: cytotoxic selectivity index, IC50 for PBMCs/cancer cell line
HL60 = tested on: HL60; parameters: method as in doi:10.2174/1570180814666171012162557; conditions: for SI PBMC/HL-60: cytotoxic selectivity index, IC50 for PBMCs/cancer cell line
OVCAR-8 = tested on: OVCAR-8; parameters: method as in doi:10.2174/1570180814666171012162557; conditions: for SI PBMC/OVCAR-8: cytotoxic selectivity index, IC50 for PBMCs/cancer cell line
HL-60 cells [2] = tested on: HL-60 cells; parameters: method as in PMID 16316665; conditions: lowest treatment concentration (3.97 μmol.L^-1)
HL-60 cells [3] = tested on: HL-60 cells; parameters: method as in PMID 16316665
K562 cells = tested on: K562 cells; parameters: method as in PMID 15787450, doi:10.1007/s11418-006-0118-3; conditions: 48-hour incubation
HL-60 cells [4] = tested on: HL-60 cells; parameters: method as in PMID 16316665; conditions: 3 hours

| Compound | IC50 [1] [nM] | IC50 (HCT-8; 72h of treatment, mean±SEM, read-out: HCT-8 (mean IC50±SEM)) [nM] | SI PBMC/HCT-8 (HCT-8; 72h of treatment) | IC50 (HL60; 72h of treatment, mean±SEM, read-out: HL60 (mean IC50±SEM)) [nM] | SI PBMC/HL-60 (HL60; 72h of treatment) | IC50 (OVCAR-8; 72h of treatment, mean±SEM, read-out: OVCAR-8 (mean IC50±SEM)) [nM] | SI PBMC/OVCAR-8 (OVCAR-8; 72h of treatment) | HL-60 cell population with depolarized mitochondria (HL-60 cells [2]) [%] | Cells with DNA fragmentation (HL-60 cells [3]; HL-60 cells permeabilized with Triton X-100, 24-hour treatment, 3.97, 7.95 and 15.9 μmol.L^-1) [%] | Cell cycle arrest (DNA content) (HL-60 cells [3]; HL-60 cells, 15.9 μmol.L^-1) | Membrane damage (HL-60 cells [3]; HL-60 cells, 24-hour treatment, 3.97, 7.95 and 15.9 μmol.L^-1) | IC50, proliferation of K562 cells (K562 cells) [µg/mL] | Inhibition of BrdU incorporation during the S phase (HL-60 cells [4]; 3.97 μmol.L^-1) [%] | Inhibition of BrdU incorporation during the S phase (HL-60 cells [4]; 7.95 μmol.L^-1) [%] | Inhibition of BrdU incorporation during the S phase (HL-60 cells [4]; 15.9 μmol.L^-1) [%] | IC50 (HCT-8; read-out: IC50 in HCT-8 tumor cell line) [nM] | IC50 (HL60; read-out: IC50 in HL-60 tumor cell line) [nM] | IC50 (OVCAR-8; read-out: IC50 in OVCAR-8 tumor cell line) [nM] |
| --- | --- | --- | --- | --- | --- | --- | --- | --- | --- | --- | --- | --- | --- | --- | --- | --- | --- | --- |
| COc1cc(C(=O)N/N=C/c2ccccc2)cc(OC)c1OC [LASSBio-1586] | 1340 ± 65 | 450 ± 81 | 3.0 | 290 ± 1.2 | 4.60 | 290 ± 40 | 4.60 |  |  |  |  |  |  |  |  |  |  |  |
| COc1ccc(/C=C\c2cc(OC)c(OC)c(OC)c2)cc1O [CA-4, combretastatin A-4, reference compound] | 3.2 |  | 0.60 |  | 1.45 |  | 6.40 |  |  |  |  |  |  |  |  |  |  |  |
| COc1ccc2c(c1)O[C@@H]1c3cc(OC)c(OC)cc3OC[C@H]21 [(+)2,3,9-trimethoxypterocarpan, (+)2,3,9-Trimethoxypterocarpan] |  |  |  |  |  |  |  | 38.6 | ~50 | arrested at the G2/M phase transition | no significant membrane damage | 0.8 | 37 | 38 | 56 |  |  |  |
| COc1cc(C(=O)N/N=C/c2cc3ccccc3s2)cc(OC)c1OC [LASSBio-1920] | 100 ± 11 |  | 20.0 |  | 333.30 |  | 11.11 |  |  |  |  |  |  |  |  | 5 | 0.3 | 9 |
